Holding throughout (assay type): cell-based
One test deals with DB cells. As to the kind of experiment: BTK (wt) cell proliferation, DB (CellTiter-Glo, 72 h).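 Further: DB cells in 384-well plates given a dilution series of compound, viable cells read by ATP luminescence, growth expressed versus DMSO control after subtracting a time-zero plate reading.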 Conditions: Homo sapiens, DB, DB cells, CellTiter-Glo, read-out: Non-BCR activated DB GI50. For orientation: In ATP-based viability assays light output follows the ATP content of the culture.
The subject of test [1] is Her2 exon 20 insertion YVMA transduced NIH-3T3 cell line. The test is described as follows: Cell proliferation, Her2 YVMAins NIH-3T3 (CellTiter-Glo, 72 h).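 Further: viable cells quantified by ATP luminescence, growth over a day-zero baseline plate expressed as percent of DMSO control growth, compound dilution series in 10% FBS medium.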 As to conditions: Mus musculus, NIH3T3, 72 h, Her2 YVMAins cells, 72 h proliferation; read-out: Her2 Exon 20 YVMA insertion GI50.
Test [2] concerns NCI-H1975 EGFR L858R/T790M cells. The test is described as follows: Cell proliferation, NCI-H1975 EGFR L858R/T790M (CellTiter-Glo, 72 h).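 Further: viable cells quantified by luciferase-based ATP luminescence, proliferation expressed relative to DMSO-treated wells (100%) after subtracting a parallel plate read at the time of dosing.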 As to conditions: Homo sapiens, NCI-H1975, 72 h, NCI-H1975, 72 h proliferation; read-out: EGFR L858R and T790M mutation GI50.
Method: (§1) WT or mutant cells were seeded in 384 well plates at appropriate concentrations with corresponding growth media supplemented with 10% FBS, for each experiment, identical plates were prepared in duplicates, and the plates were incubated overnight. On the next day, one of each duplicated plates was dosed with tested compounds at a series of concentrations, and another one of the duplicated plate was analysied for G0 value. The dosed plates were incubate for another 72 h at 37° C. with 5% CO2 and the number of viable cells in each well of the G0 plates or the dosed plates were measured by CellTiter-Glo® Luminescent Cell Viability Assay (Promega). This assay is a luminescent method for determining the number viable cells through measurement of cellular ATP concentration by detection of luciferase activity. Detection reagents (15 µl) was dispensed into per well, and the plates were incubate for 30 min at room temperature. Then, the luminescence in each well was measured using the Envision plate reader (PerkinElmer). The percentage of proliferation was calculated based on the formula: %Proliferation= 100 × (G3 value of sample well-Go value)/(G3 value of DMSO control-Go value).
In a further test the test system is TMD-8 cells. The test is described as follows: BTK (wt) cell proliferation, TMD-8 (CellTiter-Glo, 72 h).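 Further: viable cells quantified by ATP-based luminescence, proliferation expressed as percent of DMSO control after subtracting a time-zero baseline plate read at dosing.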 Conditions: Homo sapiens, TMD8, 72 h, TMD-8 cells, 72 h, CellTiter-Glo; read-out: BTK WT TMD-8 GI50.
A further test deals with OCI-LY-10 cells. The test is described as follows: BTK (wt) cell proliferation, OCI-LY-10 (CellTiter-Glo, 72 h).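 Further: viable cells quantified via cellular ATP luminescence, proliferation given as percent of DMSO control after subtracting a duplicate plate read at time of dosing.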 Conditions: Homo sapiens, OCI-Ly10, 72 h, OCI-LY-10 cells, 72 h, CellTiter-Glo; read-out: BTK WT OCI-LY-10 GI50.
For the next test, the system named is Ri-1 cells. The test is described as follows: BTK (wt) cell proliferation, Ri-1 (CellTiter-Glo, 72 h).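 Further: viable cells quantified as cellular ATP luminescence, proliferation normalized to a time-zero plate and the DMSO control, compounds tested across a dilution series.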 As to conditions: Ri-1, 72 h, Ri-1 cells, 72 h, CellTiter-Glo; read-out: BTK WT Ri-1 GI50.
A further test deals with WT EGFR cell line A-431. As to the kind of experiment: Cell proliferation, WT EGFR A431 (CellTiter-Glo, 72 h).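 Further: proliferation from a luminescent ATP viability signal, expressed as 100 × (treated minus time-zero plate) over (DMSO control minus time-zero plate), cells grown with 10% FBS.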 Conditions: Homo sapiens, A-431, 72 h, A431, 72 h proliferation; read-out: EGFR WT A431 GI50.
The target of test [3] is T1, human Her2 exon 20 insertion mutation YVMA (Homo sapiens, UniProt P04626, INS775YVMA).
T1 construct: expressed in transfected cells; host or cells: NIH-3T3, lentiviral transduction, puromycin selection
T1 sequence (P04626 with tags, fused parts or gaps INS775YVMA): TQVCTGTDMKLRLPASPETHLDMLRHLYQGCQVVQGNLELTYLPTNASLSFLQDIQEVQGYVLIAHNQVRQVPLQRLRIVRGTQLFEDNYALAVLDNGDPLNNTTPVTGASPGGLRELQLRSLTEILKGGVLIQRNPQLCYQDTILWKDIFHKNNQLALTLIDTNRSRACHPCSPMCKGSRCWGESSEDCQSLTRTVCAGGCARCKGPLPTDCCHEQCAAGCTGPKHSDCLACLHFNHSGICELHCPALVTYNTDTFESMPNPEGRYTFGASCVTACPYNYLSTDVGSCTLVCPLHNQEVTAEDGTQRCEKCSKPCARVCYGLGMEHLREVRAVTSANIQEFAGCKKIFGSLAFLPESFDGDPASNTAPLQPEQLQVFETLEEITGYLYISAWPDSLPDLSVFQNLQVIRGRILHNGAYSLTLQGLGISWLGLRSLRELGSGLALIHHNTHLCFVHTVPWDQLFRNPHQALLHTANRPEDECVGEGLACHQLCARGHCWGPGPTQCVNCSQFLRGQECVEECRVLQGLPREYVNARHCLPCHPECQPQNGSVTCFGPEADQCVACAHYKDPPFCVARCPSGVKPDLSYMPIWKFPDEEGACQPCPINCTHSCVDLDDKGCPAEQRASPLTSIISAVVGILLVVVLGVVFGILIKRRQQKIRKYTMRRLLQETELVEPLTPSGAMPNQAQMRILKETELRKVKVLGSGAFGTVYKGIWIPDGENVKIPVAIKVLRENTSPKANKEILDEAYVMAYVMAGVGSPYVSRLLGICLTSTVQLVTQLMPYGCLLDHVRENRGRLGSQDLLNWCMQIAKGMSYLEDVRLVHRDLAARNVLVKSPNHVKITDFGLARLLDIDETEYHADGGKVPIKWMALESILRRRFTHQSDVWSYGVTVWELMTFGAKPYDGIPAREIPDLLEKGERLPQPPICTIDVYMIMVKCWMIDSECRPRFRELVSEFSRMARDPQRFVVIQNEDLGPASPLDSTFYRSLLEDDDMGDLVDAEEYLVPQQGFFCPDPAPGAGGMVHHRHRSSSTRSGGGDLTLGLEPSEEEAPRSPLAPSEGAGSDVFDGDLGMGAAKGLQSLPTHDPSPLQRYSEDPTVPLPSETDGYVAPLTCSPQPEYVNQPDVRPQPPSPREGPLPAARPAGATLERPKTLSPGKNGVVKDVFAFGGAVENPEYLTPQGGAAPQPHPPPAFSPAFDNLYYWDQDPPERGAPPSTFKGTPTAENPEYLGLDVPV
The test is described as follows: Her2 Exon 20 YVMA insertion cellular phosphorylation inhibition (MSD p-Her2 Y1248/total Her2).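 Further: lentivirally transduced NIH-3T3 cells in 1% FBS medium, electrochemiluminescent MSD read-out, graded compound concentrations at 37 °C.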 Conditions: Her2 YVMAins cells, 4 h compound.

Test [4] has as its target T2, human EGFR exon 20 H773_V774insNPH (Homo sapiens, UniProt P00533, INS773NPH).
T2 construct: host or cells: Ba/F3
The test is described as follows: EGFR Exon20 NPH insertion cellular phosphorylation inhibition (MSD pEGFR Y1068/total EGFR).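 Further: IL3-independent Ba/F3 cells with constitutively phosphorylated EGFR, compound exposure at 37 °C under 5% CO2, electrochemiluminescent MSD measurement of the p-EGFR to total EGFR ratio.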 As to conditions: Ba/F3 EGFR NPH ins cells, 4 h compound, p-EGFR(Y1068)/total EGFR.

Another test deals with Ba/F3 EGFR NPH ins cells. The test is described as follows: Cell proliferation, Ba/F3 EGFR NPH ins (CellTiter-Glo, 72 h).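 Further: IL3-independent cells carrying constitutively phosphorylated EGFR, compound dilution series, viable cells quantified by ATP luminescence, growth relative to DMSO wells after subtracting pre-dosing (day 0) baseline.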 Conditions: Ba/F3 EGFR, 72 h, Ba/F3 EGFR NPH ins, 72 h proliferation; read-out: EGFR Exon20 NPH insertion GI50.
The target of test [5] is T3, human EGFR exon 20 V769_D770insASV (Homo sapiens, UniProt P00533, INS769ASV).
T3 construct: expressed in transfected cells; host or cells: Ba/F3 (DSMZ ACC-300), lentiviral transduction, puromycin selection, IL3 depletion
The test is described as follows: EGFR Exon20 ASV insertion cellular phosphorylation inhibition (MSD pEGFR Y1068/total EGFR).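 Further: electrochemiluminescent readout on an MSD SECTOR Imager, IL3-independent transduced cells in medium with 1% FBS, compound concentration series at 37 °C and 5% CO2.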 Conditions: Ba/F3 EGFR ASV ins cells, 4 h compound, p-EGFR(Y1068)/total EGFR.

A further test has as its system Ba/F3 EGFR ASV ins cells. The test is described as follows: Cell proliferation, Ba/F3 EGFR ASV ins (CellTiter-Glo, 72 h).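 Further: IL3-independent Ba/F3 cells transduced with EGFR V769_D770insASV, cellular ATP luminescence after compound exposure, growth relative to DMSO control with the day-0 baseline reading subtracted.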 As to conditions: Ba/F3 EGFR, 72 h, Ba/F3 EGFR ASV ins, 72 h proliferation; read-out: EGFR Exon20 ASV insertion GI50.
The target of a further test is T4, WT EGFR (Homo sapiens, UniProt P00533).
T4 construct: host or cells: A-431
T4 sequence (P00533 25-1210): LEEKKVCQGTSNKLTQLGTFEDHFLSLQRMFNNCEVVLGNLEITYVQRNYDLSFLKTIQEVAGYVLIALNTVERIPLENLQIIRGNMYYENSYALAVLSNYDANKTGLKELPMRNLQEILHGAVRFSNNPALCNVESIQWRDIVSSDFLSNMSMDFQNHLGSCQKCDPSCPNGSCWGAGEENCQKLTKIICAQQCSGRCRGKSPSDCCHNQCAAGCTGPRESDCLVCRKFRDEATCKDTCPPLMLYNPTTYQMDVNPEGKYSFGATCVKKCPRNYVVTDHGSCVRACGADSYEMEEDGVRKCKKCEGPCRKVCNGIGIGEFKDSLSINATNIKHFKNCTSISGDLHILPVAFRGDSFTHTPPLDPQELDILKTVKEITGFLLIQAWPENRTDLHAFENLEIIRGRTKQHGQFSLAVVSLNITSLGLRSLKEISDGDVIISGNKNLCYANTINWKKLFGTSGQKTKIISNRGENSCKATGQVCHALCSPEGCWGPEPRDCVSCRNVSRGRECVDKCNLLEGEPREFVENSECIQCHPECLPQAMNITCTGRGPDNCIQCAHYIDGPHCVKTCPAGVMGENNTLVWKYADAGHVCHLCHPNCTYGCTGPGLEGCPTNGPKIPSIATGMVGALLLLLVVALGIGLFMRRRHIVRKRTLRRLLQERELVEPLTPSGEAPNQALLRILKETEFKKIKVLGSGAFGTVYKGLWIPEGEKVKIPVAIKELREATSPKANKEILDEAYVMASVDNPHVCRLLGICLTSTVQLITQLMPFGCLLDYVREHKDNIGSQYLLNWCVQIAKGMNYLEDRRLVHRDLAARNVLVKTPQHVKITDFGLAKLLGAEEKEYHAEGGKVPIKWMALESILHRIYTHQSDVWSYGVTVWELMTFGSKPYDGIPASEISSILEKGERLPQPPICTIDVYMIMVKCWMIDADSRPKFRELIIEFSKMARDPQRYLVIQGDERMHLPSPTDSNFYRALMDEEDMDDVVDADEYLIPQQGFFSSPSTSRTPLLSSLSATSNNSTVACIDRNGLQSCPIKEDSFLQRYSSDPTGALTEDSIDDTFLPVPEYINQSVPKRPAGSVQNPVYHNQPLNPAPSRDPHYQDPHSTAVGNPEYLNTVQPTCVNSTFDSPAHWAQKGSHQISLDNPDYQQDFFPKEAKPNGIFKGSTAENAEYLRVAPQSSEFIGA
The test is described as follows: WT EGFR cellular phosphorylation inhibition in A-431 (hEGF stimulated, MSD).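 Further: electrochemiluminescence read-out of EGFR Tyr1068 phosphorylation expressed as ratio to total EGFR, cells kept in medium with 1% FBS, compounds tested as a concentration series.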 Conditions: A431 cells, 4 h compound, then 100 ng/ml hEGF 10 min.

Another test deals with T5, EGFR L858R&T790M (Homo sapiens, UniProt P00533, L858R/T790M).
T5 construct: host or cells: NCI-H1975
T5 sequence (P00533 25-1210 T790M/L858R): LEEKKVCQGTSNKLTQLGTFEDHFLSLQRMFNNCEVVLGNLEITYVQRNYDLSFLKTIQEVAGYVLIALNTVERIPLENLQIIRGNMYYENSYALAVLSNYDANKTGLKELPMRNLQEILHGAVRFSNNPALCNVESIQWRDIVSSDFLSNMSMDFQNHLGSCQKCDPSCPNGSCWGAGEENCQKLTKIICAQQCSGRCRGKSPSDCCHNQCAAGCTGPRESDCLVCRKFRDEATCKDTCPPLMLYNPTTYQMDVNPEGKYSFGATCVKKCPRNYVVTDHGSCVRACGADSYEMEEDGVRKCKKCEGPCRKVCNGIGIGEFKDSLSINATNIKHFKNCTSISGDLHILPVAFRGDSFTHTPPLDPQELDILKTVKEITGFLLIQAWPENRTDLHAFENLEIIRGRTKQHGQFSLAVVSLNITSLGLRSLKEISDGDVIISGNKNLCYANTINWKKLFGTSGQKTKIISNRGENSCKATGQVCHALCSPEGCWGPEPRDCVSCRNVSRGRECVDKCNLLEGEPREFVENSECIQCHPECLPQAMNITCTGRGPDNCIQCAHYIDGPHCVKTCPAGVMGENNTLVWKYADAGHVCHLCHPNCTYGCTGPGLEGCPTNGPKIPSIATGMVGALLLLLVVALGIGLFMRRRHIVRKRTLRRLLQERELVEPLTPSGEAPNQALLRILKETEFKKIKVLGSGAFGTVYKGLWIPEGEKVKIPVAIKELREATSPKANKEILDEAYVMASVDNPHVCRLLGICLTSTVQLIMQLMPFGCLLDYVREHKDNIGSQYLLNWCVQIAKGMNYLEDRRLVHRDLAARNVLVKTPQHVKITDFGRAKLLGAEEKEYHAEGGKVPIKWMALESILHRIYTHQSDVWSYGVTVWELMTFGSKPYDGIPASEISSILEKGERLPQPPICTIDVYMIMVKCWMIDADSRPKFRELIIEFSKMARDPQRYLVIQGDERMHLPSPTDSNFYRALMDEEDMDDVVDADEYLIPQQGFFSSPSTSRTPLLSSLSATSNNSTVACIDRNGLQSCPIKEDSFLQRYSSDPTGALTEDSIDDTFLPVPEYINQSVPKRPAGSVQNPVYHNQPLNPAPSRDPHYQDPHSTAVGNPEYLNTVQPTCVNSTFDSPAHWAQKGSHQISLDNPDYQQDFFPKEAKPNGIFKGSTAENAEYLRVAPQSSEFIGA
As to the kind of experiment: EGFR L858R and T790M cellular phosphorylation inhibition in NCI-H1975 (MSD).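 Further: phosphorylated and total EGFR detected by electrochemiluminescence, cells exposed to compound in medium containing 1% FBS at 37 °C.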 Conditions: NCI-H1975 cells, 4 h compound, p-EGFR(Y1068)/total EGFR; read-out: EGFR L858R and T790M mutation IC50.

Each structure is given as a SMILES string.

T2 sequence (P00533 with tags, fused parts or gaps INS773NPH): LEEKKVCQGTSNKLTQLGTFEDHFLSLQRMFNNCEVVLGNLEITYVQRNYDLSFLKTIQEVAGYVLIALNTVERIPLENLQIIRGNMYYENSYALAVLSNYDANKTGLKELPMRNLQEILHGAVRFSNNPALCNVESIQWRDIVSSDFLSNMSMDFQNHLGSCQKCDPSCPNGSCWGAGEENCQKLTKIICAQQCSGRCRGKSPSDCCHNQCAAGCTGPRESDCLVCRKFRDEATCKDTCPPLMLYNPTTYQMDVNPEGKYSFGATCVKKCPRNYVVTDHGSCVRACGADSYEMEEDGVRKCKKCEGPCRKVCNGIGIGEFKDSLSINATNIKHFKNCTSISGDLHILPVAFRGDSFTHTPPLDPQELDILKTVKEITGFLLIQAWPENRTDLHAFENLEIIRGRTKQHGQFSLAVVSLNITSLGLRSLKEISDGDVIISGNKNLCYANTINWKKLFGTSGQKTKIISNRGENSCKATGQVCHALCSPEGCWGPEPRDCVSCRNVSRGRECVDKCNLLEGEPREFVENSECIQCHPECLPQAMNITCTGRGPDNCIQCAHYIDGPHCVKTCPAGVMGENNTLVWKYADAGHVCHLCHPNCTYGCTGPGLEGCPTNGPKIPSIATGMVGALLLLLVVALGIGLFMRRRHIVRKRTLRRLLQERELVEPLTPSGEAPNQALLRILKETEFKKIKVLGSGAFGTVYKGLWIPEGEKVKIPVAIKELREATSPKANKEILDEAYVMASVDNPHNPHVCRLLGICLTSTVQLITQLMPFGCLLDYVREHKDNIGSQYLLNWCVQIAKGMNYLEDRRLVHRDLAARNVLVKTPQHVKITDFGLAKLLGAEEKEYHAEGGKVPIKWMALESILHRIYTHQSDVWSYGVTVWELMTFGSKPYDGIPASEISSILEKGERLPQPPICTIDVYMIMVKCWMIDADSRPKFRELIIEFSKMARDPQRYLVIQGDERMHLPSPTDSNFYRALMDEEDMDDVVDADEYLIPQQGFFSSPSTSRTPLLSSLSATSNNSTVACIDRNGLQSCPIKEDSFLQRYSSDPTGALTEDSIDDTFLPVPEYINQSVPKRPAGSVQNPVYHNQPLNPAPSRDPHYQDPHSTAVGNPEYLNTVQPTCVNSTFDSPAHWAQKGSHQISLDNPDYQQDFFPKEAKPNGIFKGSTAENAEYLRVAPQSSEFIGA
Method for Ba/F3 EGFR NPH ins cells: Similar to recombinant human EGFR exon 20 H769_V770insASV Ba/F3 cell line, the recombinant human EGFR exon 20 H773_V774insNPH Ba/F3 cell line also expresses constitutively phosphorylated EGFR protein and proliferates in the absence of IL3, which could be used for in vitro PD and anti-proliferation assays.
as §1

As to `C=CC(=O)Nc1cc(Nc2ncnc(Nc3cc(Cl)c(F)cc3C(C)(C)O)n2)c(OC)cc1N1CCOC[C@@H]1CN(C)C` [Compound 40, (S)-N-(5-(4-(5-chloro-4-fluoro-2-(2-hydroxypropan-2-yl)phenylamino)-1,3,5-triazin-2-ylamino)-2-(3-((dimethylamino)methyl)morpholino)-4-methoxyphenyl)acrylamide], the concentration for 50% growth inhibition (GI50) (usually the concentration giving 50% growth inhibition) is over 3000 nM in the test with DB cells; 43.4 nM in [1]; 2.1 nM in test [2]; 15.1 nM in the test on TMD-8 cells; 15.1 nM in the test with OCI-LY-10 cells; 11.9 nM in the test on Ri-1 cells. Also, the GI50 in the test with WT EGFR cell line A-431 was found to be 13.6 nM; with Ba/F3 EGFR NPH ins cells it was 22 nM; in the test on Ba/F3 EGFR ASV ins cells it was 25.7 nM. For the same compound, the half-inhibitory concentration (IC50) – broadly, the point on the concentration scale where inhibition reaches its midpoint – stood at 5 nM in [3]; 10.9 nM in [4]; 13 nM in test [5]; 19.3 nM against WT EGFR; 0.9 nM at EGFR L858R&T790M.
Take `C=CC(=O)Nc1cc(Nc2ncnc(Nc3cc(F)c(Cl)cc3C(C)(C)O)n2)c(OC)cc1N1CC[C@@H]2CN(C)C[C@@H]21` [Compound 41, N-(5-(4-(4-chloro-5-fluoro-2-(2-hydroxypropan-2-yl)phenylamino)-1,3,5-triazin-2-ylamino)-4-methoxy-2-((3aR,6aR)-5-methylhexahydropyrrolo[3,4-b]pyrrol-1 (2H)-yl)phenyl)acrylamide]: the concentration for 50% growth inhibition (GI50) in the test on DB cells was over 3000 nM; in test [1] it was 52.1 nM; in test [2], 1.6 nM; in the test on TMD-8 cells, 4.57 nM; in the test on OCI-LY-10 cells it was 1.57 nM; in the test with Ri-1 cells it was 4.92 nM. Further, the 50% growth inhibitory concentration (GI50) is 13.8 nM with WT EGFR cell line A-431, 23.2 nM with Ba/F3 EGFR NPH ins cells and 21.8 nM in the test with Ba/F3 EGFR ASV ins cells. In addition, the IC50 in test [3] amounted to 9 nM; in test [4], 12.6 nM; in [5], 6.7 nM; against WT EGFR, 13.1 nM; at EGFR L858R&T790M it was 0.8 nM.
As for `C=CC(=O)Nc1cc(Nc2ncnc(Nc3cc(F)c(Cl)cc3C(C)(C)O)n2)c(OC)cc1N1CCC[C@@H]1CN(C)C` [Compound 43, (R)-N-(5-(4-(4-chloro-5-fluoro-2-(2-hydroxypropan-2-yl)phenylamino)-1,3,5-triazin-2-ylamino)-2-(2-((dimethylamino)methyl)pyrrolidin-1-yl)-4-methoxyphenyl)acrylamid], the 50% growth inhibitory concentration (GI50) in the test on DB cells is over 3000 nM; in [1], 27.6 nM; in test [2], 1.2 nM; in the test on TMD-8 cells, 13.6 nM; in the test with OCI-LY-10 cells, 7.6 nM; with Ri-1 cells it was 28.5 nM. For the same compound, the concentration for 50% growth inhibition (GI50) in the test with WT EGFR cell line A-431 stood at 4.3 nM; in the test with Ba/F3 EGFR NPH ins cells, 17.4 nM; in the test with Ba/F3 EGFR ASV ins cells, 9.3 nM. In addition, the IC50 in test [3] was 2.9 nM; in test [4], 3.9 nM; in test [5] it was 5.9 nM; on WT EGFR it was 8.1 nM; at EGFR L858R&T790M, 0.3 nM.
With `C=CC(=O)Nc1cc(Nc2ncnc(Nc3cc(Cl)c(F)cc3C(C)(C)O)n2)c(OC)cc1N(C)C[C@@H]1CCCN1C` [Compound 44, (S)-N-(5-(4-(5-chloro-4-fluoro-2-(2-hydroxypropan-2-yl)phenylamino)-1,3,5-triazin-2-ylamino)-4-methoxy-2-(methyl((1-methylpyrrolidin-2-yl)methyl)amino)phenyl) acrylamide], the 50% growth inhibitory concentration (GI50) in the test with DB cells is over 3000 nM; in [1], 74.6 nM; in test [2] it was 3.6 nM; in the test on TMD-8 cells it was 4.32 nM; in the test on OCI-LY-10 cells, 6.75 nM; in the test on Ri-1 cells, 10.4 nM. Moreover, the 50% growth inhibitory concentration (GI50) in the test with WT EGFR cell line A-431 stood at 14.8 nM; in the test on Ba/F3 EGFR NPH ins cells it was 39 nM; in the test on Ba/F3 EGFR ASV ins cells, 29.8 nM. Besides, the IC50 in [3] stood at 8 nM; in [4], 6.8 nM; in test [5], 12.5 nM; against WT EGFR, 30.9 nM; on EGFR L858R&T790M, 0.5 nM.

The values are drawn from US20230293535A1, “ERBB/BTK INHIBITORS” (Dizal (Jiangsu) Pharmaceutical Co., Ltd., priority 2018, published 2023).
